# Measured values: patent US20240374764A1, “COMBINATION RADIOTHERAPY” (Telix Pharmaceuticals (Innovations) Pty Ltd., priority 2021, published 2024)
# Columns and labels:
# [1] = target: DNA-PK (Homo sapiens, UniProt P78527); details: as demonstrated by crystallographic and enzyme kinetics studies; cited from earlier work
# [2] = system: SK-RC-52 xenografts; details: mouse, in vivo
# Experimental: Female BALB/c nude mice with established SK-RC-52 xenografts (approx. 100 mm^3) were used for this study. Mice were split into one of the following 3 groups: • Vehicle control (oral) n=4; • ^177Lu-anti-CAIX antibody only (DOTA-GmAb, as described herein; 162 μCi/6 MBq) n=4; • 50 mg/kg M3814 DNA-PKi orally dosed and ^177Lu-anti-CAIX antibody (162 μCi/6 MBq) n=4.
# Animals were treated as follows: • Day −14: injection of 60 female mice with RK-RC-52 metastatic RCC cells in matrigel; • Day 0: ^177Lu-anti-CAIX antibody i.v. administration, single dose once only • Day 1-7: daily oral dosing of vehicle/M3814 @ 50 mg/kg.
# SPECT/MRI imaging was conducted at days 3 and 6 to determine biodistribution.
# [3] = system: SK-RC-52 xenografts; assay: In vivo efficacy in SK-RC-52 metastatic renal cell carcinoma xenograft model; design: species or system Female BALB/c nude mice; details: number of mice (% of group, n=4) at conclusion of study; 177Lu antibody 6 MBq single i.v. dose day 0; M3814 50 mg/kg oral daily where combined
# Excerpt: Tumour growth curves were monitored in mice for up to 6 months or ethical limits.
# [4] = previous clinical studies, cited from earlier work
compound,measurement,setting,value
"COc1ccc([C@@H](O)c2cc(-c3ncnc4cc(N5CCOCC5)ccc34)c(F)cc2Cl)nn1 [M3814, (S)-[2-chloro-4-fluoro-5-(7-morpholin-4-yl-quinazolin-4-yl)-phenyl]-(6-methoxypyridazin-3-yl)-methanol]","inhibition of DNA-PK (mode, potency, selectivity)",[1],potent and selective ATP-competitive inhibitor of DNA-PK
^177Lu-anti-CAIX antibody: 177Lu-labelled DOTA conjugate of the anti-CAIX antibody GmAb (girentuximab),SPECT imaging: delivery of radiation to the tumour,[2],specifically delivers cytotoxic radiation to the tumour over a prolonged period
same,Complete Remission,[3],1 (25%)
same,Progressive Disease,[3],3 (75%)
"^177Lu-girentuximab: chimeric monoclonal antibody girentuximab (cG250, TLX250) specific for CAIX, radiolabelled with lutetium-177 via a DOTA linker",MTD,[4]; single agent,2405 MBq/m^2
same,tolerability of follow on dosing at 75% of the previous dose,[4],well tolerated
